From patent publication US9713651B2, “Compositions, methods, and systems for the synthesis and use of imaging agents” (Lantheus Medical Imaging, Inc., priority 2012, dated 2017)

Assay: Tissue distribution of 18F imaging agents in rats
Type: in vivo, Male Sprague Dawley rats
Details: rat, iv tail vein ~15 μCi, ± SEM; for Blood, imaging agent distribution at 15 min / Brain, imaging agent distribution at 15 min / Femur, imaging agent distribution at 15 min / Heart, imaging agent distribution at 15 min / Kidney, imaging agent distribution at 15 min / Liver, imaging agent distribution at 15 min / Lung, imaging agent distribution at 15 min / Muscle, imaging agent distribution at 15 min / Pancreas, imaging agent distribution at 15 min / Spleen, imaging agent distribution at 15 min: 15 min post injection; for Blood, imaging agent distribution at 60 min / Brain, imaging agent distribution at 60 min / Femur, imaging agent distribution at 60 min / Heart, imaging agent distribution at 60 min / Kidney, imaging agent distribution at 60 min / Liver, imaging agent distribution at 60 min / Lung, imaging agent distribution at 60 min / Muscle, imaging agent distribution at 60 min / Pancreas, imaging agent distribution at 60 min / Spleen, imaging agent distribution at 60 min: 60 min post injection
Description: Anesthetized (sodium pentobarbital at 50 mg/kg, ip or isoflurane gas inhalation) Male Sprague Dawley rats (250-350 g) received an iv injection of the imaging agent (˜15 μCi) via the tail vein. At 15 or 60 min post injection, the animals were euthanized and the required tissue samples harvested. All samples were then weighed and counted for radioactivity (Wallac Wizard 1480 or Packard Cobra II Autogamma); regional tissue uptake of the imaging agent was thus expressed as a percentage of the total injected dose per gram of tissue (% ID/g).
The generic structure depicted below highlights specific structural features evaluated during distribution experiments.

Structure (SMILES) | Blood, imaging agent distribution at 15 min | Brain, imaging agent distribution at 15 min | Femur, imaging agent distribution at 15 min | Heart, imaging agent distribution at 15 min | Kidney, imaging agent distribution at 15 min | Liver, imaging agent distribution at 15 min | Lung, imaging agent distribution at 15 min | Muscle, imaging agent distribution at 15 min | Pancreas, imaging agent distribution at 15 min | Spleen, imaging agent distribution at 15 min | Blood, imaging agent distribution at 60 min | Brain, imaging agent distribution at 60 min | Femur, imaging agent distribution at 60 min | Heart, imaging agent distribution at 60 min | Kidney, imaging agent distribution at 60 min | Liver, imaging agent distribution at 60 min | Lung, imaging agent distribution at 60 min | Muscle, imaging agent distribution at 60 min | Pancreas, imaging agent distribution at 60 min | Spleen, imaging agent distribution at 60 min
CC(C)(C)n1ncc(CCc2ccc(COCCF)cc2)c(Cl)c1=O [Example 67M] | 0.53 ± 0.13 % ID/g | 0.55 ± 0.31 % ID/g | 0.52 ± 0.19 % ID/g | 2.54 ± 0.20 % ID/g | 0.79 ± 0.07 % ID/g | 0.96 ± 0.10 % ID/g | 0.97 ± 0.13 % ID/g | 0.24 ± 0.04 % ID/g | – | 0.35 ± 0.05 % ID/g | 0.73 ± 0.16 % ID/g | 2.33 ± 0.12 % ID/g | 0.43 ± 0.03 % ID/g | 0.55 ± 0.06 % ID/g | 0.43 ± 0.04 % ID/g | 0.43 ± 0.04 % ID/g | 1.03 ± 0.22 % ID/g | 0.31 ± 0.04 % ID/g | – | 0.26 ± 0.03 % ID/g
CC(C)(C)n1ncc(OCc2ccc(-c3cnc(F)nc3)cc2)c(Cl)c1=O [Example 67L] | 0.14 ± 0.01 % ID/g | 0.30 ± 0.05 % ID/g | 0.31 ± 0.01 % ID/g | 1.19 ± 0.18 % ID/g | 0.65 ± 0.07 % ID/g | 1.71 ± 0.36 % ID/g | 0.29 ± 0.03 % ID/g | 0.27 ± 0.02 % ID/g | 0.36 ± 0.06 % ID/g | 0.18 ± 0.01 % ID/g | 0.10 ± 0.02 % ID/g | 0.22 ± 0.03 % ID/g | 0.78 ± 0.15 % ID/g | 0.62 ± 0.12 % ID/g | 0.40 ± 0.08 % ID/g | 2.06 ± 0.27 % ID/g | 0.21 ± 0.02 % ID/g | 0.20 ± 0.06 % ID/g | 0.33 ± 0.08 % ID/g | 0.11 ± 0.02 % ID/g
CC(C)n1ncc(OCc2ccc(COCCF)cc2)c(Cl)c1=O [Example 67H] | 0.45 ± 0.02 % ID/g | 0.43 ± 0.05 % ID/g | 0.36 ± 0.04 % ID/g | 1.14 ± 0.09 % ID/g | 0.78 ± 0.01 % ID/g | 0.46 ± 0.01 % ID/g | 0.41 ± 0.01 % ID/g | 0.38 ± 0.02 % ID/g | 0.44 ± 0.03 % ID/g | 0.34 ± 0.03 % ID/g | 0.55 ± 0.02 % ID/g | 0.43 ± 0.02 % ID/g | 0.71 ± 0.06 % ID/g | 0.55 ± 0.03 % ID/g | 0.49 ± 0.03 % ID/g | 0.40 ± 0.02 % ID/g | 0.42 ± 0.01 % ID/g | 0.31 ± 0.02 % ID/g | 0.32 ± 0.02 % ID/g | 0.35 ± 0.02 % ID/g
CC(C)(C)n1ncc(OCc2ccc(C(=O)OCCF)cc2)c(Cl)c1=O [Example 67J] | 0.50 ± 0.02 % ID/g | 0.36 ± 0.01 % ID/g | 0.28 ± 0.02 % ID/g | 1.19 ± 0.25 % ID/g | 0.39 ± 0.01 % ID/g | 0.32 ± 0.01 % ID/g | 0.39 ± 0.02 % ID/g | 0.38 ± 0.04 % ID/g | 0.23 ± 0.02 % ID/g | 0.34 ± 0.01 % ID/g | 0.58 ± 0.04 % ID/g | 0.43 ± 0.02 % ID/g | 0.40 ± 0.03 % ID/g | 0.50 ± 0.03 % ID/g | 0.42 ± 0.02 % ID/g | 0.35 ± 0.02 % ID/g | 0.42 ± 0.02 % ID/g | 0.31 ± 0.02 % ID/g | 0.23 ± 0.03 % ID/g | 0.37 ± 0.02 % ID/g

Continued, values first:

Blood, imaging agent distribution at 15 min | Brain, imaging agent distribution at 15 min | Femur, imaging agent distribution at 15 min | Heart, imaging agent distribution at 15 min | Kidney, imaging agent distribution at 15 min | Liver, imaging agent distribution at 15 min | Lung, imaging agent distribution at 15 min | Muscle, imaging agent distribution at 15 min | Pancreas, imaging agent distribution at 15 min | Spleen, imaging agent distribution at 15 min | Blood, imaging agent distribution at 60 min | Brain, imaging agent distribution at 60 min | Femur, imaging agent distribution at 60 min | Heart, imaging agent distribution at 60 min | Kidney, imaging agent distribution at 60 min | Liver, imaging agent distribution at 60 min | Lung, imaging agent distribution at 60 min | Muscle, imaging agent distribution at 60 min | Pancreas, imaging agent distribution at 60 min | Spleen, imaging agent distribution at 60 min | Structure (SMILES)
0.03 ± 0.01 % ID/g | 0.14 ± 0.05 % ID/g | 0.06 ± 0.02 % ID/g | 0.65 ± 0.36 % ID/g | 0.38 ± 0.08 % ID/g | 0.08 ± 0.03 % ID/g | 0.07 ± 0.01 % ID/g | 0.09 ± 0.04 % ID/g | 0.15 ± 0.05 % ID/g | 0.05 ± 0.01 % ID/g | 0.11 ± 0.02 % ID/g | 0.14 ± 0.03 % ID/g | 0.17 ± 0.04 % ID/g | 0.84 ± 0.22 % ID/g | 0.23 ± 0.03 % ID/g | 0.11 ± 0.02 % ID/g | 0.11 ± 0.02 % ID/g | 0.18 ± 0.04 % ID/g | 0.13 ± 0.03 % ID/g | 0.09 ± 0.02 % ID/g | CC(C)(C)n1ncc(OCc2cccc(COCCF)c2)c(Cl)c1=O [Example 67A]
0.17 ± 0.02 % ID/g | 0.97 ± 0.11 % ID/g | 0.50 ± 0.04 % ID/g | 4.80 ± 0.27 % ID/g | 2.61 ± 0.18 % ID/g | 0.66 ± 0.09 % ID/g | 0.39 ± 0.05 % ID/g | 0.77 ± 0.09 % ID/g | 0.82 ± 0.07 % ID/g | 0.36 ± 0.08 % ID/g | 0.26 ± 0.03 % ID/g | 0.62 ± 0.04 % ID/g | 0.69 ± 0.05 % ID/g | 3.61 ± 0.45 % ID/g | 0.98 ± 0.04 % ID/g | 0.53 ± 0.06 % ID/g | 0.34 ± 0.03 % ID/g | 0.69 ± 0.17 % ID/g | 0.43 ± 0.05 % ID/g | 0.25 ± 0.01 % ID/g | [2H]C([2H])(OCCF)c1ccc(COc2cnn(C(C)(C)C)c(=O)c2Cl)cc1 [Example 67E]
0.26 ± 0.05 % ID/g | 0.42 ± 0.01 % ID/g | 0.33 ± 0.01 % ID/g | 4.21 ± 0.29 % ID/g | 3.04 ± 0.21 % ID/g | 2.67 ± 0.17 % ID/g | 0.50 ± 0.08 % ID/g | 0.24 ± 0.04 % ID/g | – | 0.37 ± 0.05 % ID/g | 0.20 ± 0.07 % ID/g | 0.44 ± 0.03 % ID/g | 0.84 ± 0.07 % ID/g | 4.54 ± 0.29 % ID/g | 1.77 ± 0.25 % ID/g | 0.65 ± 0.12 % ID/g | 0.61 ± 0.32 % ID/g | 0.26 ± 0.02 % ID/g | – | 0.18 ± 0.02 % ID/g | CC(C)(C)n1ncc(OCc2ccc(OCCCF)c(Cl)c2)c(Cl)c1=O [Example 67C]
0.32 ± 0.05 % ID/g | 0.50 ± 0.04 % ID/g | 0.44 ± 0.04 % ID/g | 1.92 ± 0.15 % ID/g | 1.04 ± 0.10 % ID/g | 0.40 ± 0.04 % ID/g | 0.41 ± 0.03 % ID/g | 0.60 ± 0.06 % ID/g | 0.52 ± 0.04 % ID/g | 0.28 ± 0.01 % ID/g | 0.48 ± 0.01 % ID/g | 0.38 ± 0.01 % ID/g | 0.57 ± 0.04 % ID/g | 0.87 ± 0.02 % ID/g | 0.60 ± 0.03 % ID/g | 0.39 ± 0.04 % ID/g | 0.44 ± 0.03 % ID/g | 0.43 ± 0.07 % ID/g | 0.48 ± 0.01 % ID/g | 0.31 ± 0.01 % ID/g | CC(C)(C)n1ncc(OCc2cccc(OCCF)c2)c(Cl)c1=O [Example 67F]
